Data from PubChem BioAssay AID1963833 (Molecular Pharmacology Branch, DTP, NCI, 2024).

Tested on: 883617-216-R-J1-PDC complex spheroid viability
Test: Anticancer human tumor 883617-216-R-J1-PDC patient-derived bladder carcinoma cell line growth inhibition [POLQ]
Conditions: for IC50: curve of first compound; for viability, T/C: stronger effect = lower value
Summary of the method: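 Three-cell-type spheroids modelling solid tumor plus stroma served as the readout system; POL inhibitors were tested individually and in combination, concentration ranges set by clinical Cmax where known.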

[1] = second compound 0.0316 µM, first compound 0.0316 µM
[2] = second compound 0.0316 µM, first compound 0.1 µM
[3] = second compound 0.0316 µM, first compound 0.316 µM
[4] = second compound 0.0316 µM, first compound 1 µM
[5] = second compound 0.0316 µM, first compound 3.16 µM
[6] = second compound 0.0316 µM, first compound 10 µM
[7] = second compound 0.1 µM, first compound 0.0316 µM
[8] = second compound 0.1 µM, first compound 0.1 µM
[9] = second compound 0.1 µM, first compound 0.316 µM
[10] = second compound 0.1 µM, first compound 1 µM
[11] = second compound 0.1 µM, first compound 3.16 µM
[12] = second compound 0.1 µM, first compound 10 µM
[13] = second compound 0.316 µM, first compound 0.0316 µM
[14] = second compound 0.316 µM, first compound 0.1 µM
[15] = second compound 0.316 µM, first compound 0.316 µM
[16] = second compound 0.316 µM, first compound 1 µM
[17] = second compound 0.316 µM, first compound 3.16 µM
[18] = second compound 0.316 µM, first compound 10 µM
[19] = second compound 1 µM, first compound 0.0316 µM
[20] = second compound 1 µM, first compound 0.1 µM
[21] = second compound 1 µM, first compound 0.316 µM
[22] = second compound 1 µM, first compound 1 µM
[23] = second compound 1 µM, first compound 3.16 µM
[24] = second compound 1 µM, first compound 10 µM
[25] = second compound 3.16 µM, first compound 0.0316 µM
[26] = second compound 3.16 µM, first compound 0.1 µM
[27] = second compound 3.16 µM, first compound 0.316 µM
[28] = second compound 3.16 µM, first compound 1 µM
[29] = second compound 3.16 µM, first compound 3.16 µM
[30] = second compound 3.16 µM, first compound 10 µM
[31] = second compound 10 µM, first compound 0.0316 µM
[32] = second compound 10 µM, first compound 0.1 µM
[33] = second compound 10 µM, first compound 0.316 µM
[34] = second compound 10 µM, first compound 1 µM
[35] = second compound 10 µM, first compound 3.16 µM
[36] = second compound 10 µM, first compound 10 µM
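Note: spheroids exposed to compounds for seven days before readout.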
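Throughout, for viability, T/C: 100% = DMSO vehicle control viability.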

Structure (SMILES): CC1COCCN1c1cc(C2(O)CC3CCC(C2)O3)c2cnn(-c3ccn[nH]3)c2n1 (centres undefined) + Nc1ccc(C#CCN(C(=O)Cc2ncc(C(F)(F)F)cc2C(F)(F)F)c2ccc(F)cc2)nn1
- IC50 (second compound 0.0316 µM): 0.214 µM
- IC50 (second compound 0.1 µM): 0.168 µM
- IC50 (second compound 0.316 µM): 0.414 µM
- IC50 (second compound 1 µM): 0.175 µM
- IC50 (second compound 3.16 µM): 0.218 µM
- IC50 (second compound 10 µM): 0.269 µM
- viability, T/C [1]: 70.8%
- viability, T/C [2]: 50.9%
- viability, T/C [3]: 48%
- viability, T/C [4]: 38.4%
- viability, T/C [5]: 35%
- viability, T/C [6]: 22.9%
- viability, T/C [7]: 75.2%
- viability, T/C [8]: 50.6%
- viability, T/C [9]: 40.9%
- viability, T/C [10]: 44.2%
- viability, T/C [11]: 34.9%
- viability, T/C [12]: 23.8%
- viability, T/C [13]: 68.8%
- viability, T/C [14]: 63.2%
- viability, T/C [15]: 47.8%
- viability, T/C [16]: 42.9%
- viability, T/C [17]: 37.5%
- viability, T/C [18]: 21.9%
- viability, T/C [19]: 60.9%
- viability, T/C [20]: 51.9%
- viability, T/C [21]: 45.1%
- viability, T/C [22]: 39.9%
- viability, T/C [23]: 32.3%
- viability, T/C [24]: 20.9%
- viability, T/C [25]: 67%
- viability, T/C [26]: 60.2%
- viability, T/C [27]: 45.2%
- viability, T/C [28]: 33.8%
- viability, T/C [29]: 38.7%
- viability, T/C [30]: 26.9%
- viability, T/C [31]: 73.1%
- viability, T/C [32]: 53.1%
- viability, T/C [33]: 53.1%
- viability, T/C [34]: 41.5%
- viability, T/C [35]: 39.2%
- viability, T/C [36]: 35.3%

Structure (SMILES): O=C(Nc1ccc(O)c(NS(=O)(=O)c2ccc(F)cc2)c1)c1ccc(-c2ccccc2)cc1 + Nc1ccc(C#CCN(C(=O)Cc2ncc(C(F)(F)F)cc2C(F)(F)F)c2ccc(F)cc2)nn1
- IC50 (second compound 0.0316 µM): > 10 µM
- IC50 (second compound 0.1 µM): > 10 µM
- IC50 (second compound 0.316 µM): > 10 µM
- IC50 (second compound 1 µM): > 10 µM
- IC50 (second compound 3.16 µM): > 10 µM
- IC50 (second compound 10 µM): > 10 µM
- viability, T/C [1]: 91.5%
- viability, T/C [2]: 92.5%
- viability, T/C [3]: 102%
- viability, T/C [4]: 82.8%
- viability, T/C [5]: 79.3%
- viability, T/C [6]: 71%
- viability, T/C [7]: 106%
- viability, T/C [8]: 104%
- viability, T/C [9]: 90.1%
- viability, T/C [10]: 84.1%
- viability, T/C [11]: 88.4%
- viability, T/C [12]: 70.1%
- viability, T/C [13]: 90.4%
- viability, T/C [14]: 102%
- viability, T/C [15]: 97.6%
- viability, T/C [16]: 85.5%
- viability, T/C [17]: 81.7%
- viability, T/C [18]: 72.5%
- viability, T/C [19]: 91.8%
- viability, T/C [20]: 95.4%
- viability, T/C [21]: 96.3%
- viability, T/C [22]: 84.3%
- viability, T/C [23]: 87.9%
- viability, T/C [24]: 66.1%
- viability, T/C [25]: 101%
- viability, T/C [26]: 101%
- viability, T/C [27]: 104%
- viability, T/C [28]: 88.1%
- viability, T/C [29]: 86.5%
- viability, T/C [30]: 72.2%
- viability, T/C [31]: 116%
- viability, T/C [32]: 108%
- viability, T/C [33]: 115%
- viability, T/C [34]: 97.8%
- viability, T/C [35]: 117%
- viability, T/C [36]: 72.6%
